Tests used:
[1] = system: Magnaporthe grisea (Pyricularia oryzae); assay: microbe, parasite or virus in culture; assay type: cell-based; conditions: read-out: control of Magnaporthe grisea
[2] = system: Glomerella lagenarium (Colletotrichum lagenarium); assay: Glomerella lagenarium (Colletotrichum lagenarium)/liquid culture (Anthracnose); assay type: cell-based; conditions: Colletotrichum orbiculare, 72 h, liquid culture, growth inhibition photometrically 3-4 days after application, compared to untreated control
[3] = system: Botryotinia fuckeliana (Botrytis cinerea); assay: Botryotinia fuckeliana (Botrytis cinerea)/liquid culture (Gray mould); assay type: cell-based; conditions: liquid culture, growth inhibition photometrically 3-4 days after application, compared to untreated control
Fusarium culmorum = assay: microbe, parasite or virus in culture; assay type: cell-based; conditions: read-out: control of Fusarium culmorum

CC1(CC(C)(CC(F)(F)F)C(=O)Nc2cnc3c(F)cccc3c2)CC1 (centres unmarked) [Compound E1, 4,4,4-trifluoro-N-(8-fluoro-3-quinolyl)-2-methyl-2-[(1-methylcyclopropyl)methyl]butanamide]
inhibition of growth at 20 ppm [1]: ≥ 80%
inhibition of growth at 20 ppm [2]: ≥ 80%
inhibition of growth at 20 ppm [3]: ≥ 80%
melting point: 60 to 70 °C
inhibition of growth at 20 ppm (Fusarium culmorum): ≥ 80%

C/C=C(\C)CC(C)(CC(C)C)C(=O)Nc1cnc2c(F)cccc2c1 (centres unmarked) [Compound E2]
inhibition of growth at 20 ppm [1]: ≥ 80%
inhibition of growth at 20 ppm [2]: ≥ 80%
inhibition of growth at 20 ppm [3]: ≥ 80%
melting point: 135 to 137 °C
inhibition of growth at 20 ppm (Fusarium culmorum): ≥ 80%

CC(C)=C(C)CC(C)(CC(C)C)C(=O)Nc1cnc2c(F)cccc2c1 (centres unmarked) [Compound E3]
inhibition of growth at 20 ppm [1]: ≥ 80%
inhibition of growth at 20 ppm [2]: ≥ 80%
inhibition of growth at 20 ppm [3]: ≥ 80%
inhibition of growth at 20 ppm (Fusarium culmorum): ≥ 80%

CC(C)=C(F)CC(C)(CC(C)C)C(=O)Nc1cnc2ccccc2c1 (centres unmarked) [Compound E4]
inhibition of growth at 20 ppm [1]: ≥ 80%
inhibition of growth at 20 ppm [2]: ≥ 80%
inhibition of growth at 20 ppm [3]: ≥ 80%
inhibition of growth at 20 ppm (Fusarium culmorum): ≥ 80%

CC(C)CC(C)(CC1CC1)C(=O)Nc1cnc2c(F)cccc2c1 (centres unmarked) [Compound E5]
inhibition of growth at 20 ppm [1]: ≥ 80%
inhibition of growth at 20 ppm [2]: ≥ 80%
inhibition of growth at 20 ppm [3]: ≥ 80%
inhibition of growth at 20 ppm (Fusarium culmorum): ≥ 80%

CC(C)CC(C#N)(CC(C)C)C(=O)Nc1cnc2c(F)cccc2c1 [Compound E6]
inhibition of growth at 20 ppm [1]: ≥ 80%
inhibition of growth at 20 ppm [2]: ≥ 80%
inhibition of growth at 20 ppm [3]: ≥ 80%
inhibition of growth at 20 ppm (Fusarium culmorum): ≥ 80%

C=CCC(C)(CC(C)C)C(=O)Nc1cnc2c(F)cccc2c1 (centres unmarked) [Compound E7]
inhibition of growth at 20 ppm [1]: ≥ 80%
inhibition of growth at 20 ppm [2]: ≥ 80%
inhibition of growth at 20 ppm [3]: ≥ 80%
inhibition of growth at 20 ppm (Fusarium culmorum): ≥ 80%

C=C(C)CC(C)C(=O)Nc1cnc2c(F)cccc2c1 (centres unmarked) [Compound E9]
inhibition of growth at 20 ppm [2]: ≥ 80%
inhibition of growth at 20 ppm [3]: ≥ 80%
inhibition of growth at 20 ppm (Fusarium culmorum): ≥ 80%

CC(C)=C(F)CC(CC(C)C)C(=O)Nc1cnc2c(F)cccc2c1 (centres unmarked) [Compound E10]
inhibition of growth at 20 ppm [1]: ≥ 80%
inhibition of growth at 20 ppm [2]: ≥ 80%
inhibition of growth at 20 ppm [3]: ≥ 80%
melting point: 103 to 105 °C
inhibition of growth at 20 ppm (Fusarium culmorum): ≥ 80%

CC(CC1CCCCC1)C(=O)Nc1cnc2c(F)cccc2c1 (centres unmarked) [Compound E11]
inhibition of growth at 20 ppm [1]: ≥ 80%
inhibition of growth at 20 ppm [2]: ≥ 80%
inhibition of growth at 20 ppm [3]: ≥ 80%
melting point: 179 to 181 °C
inhibition of growth at 20 ppm (Fusarium culmorum): ≥ 80%

C=C(Cl)CC(C)(CC1CCCCC1)C(=O)Nc1cnc2c(F)cccc2c1 (centres unmarked) [Compound E12]
inhibition of growth at 20 ppm [1]: ≥ 80%
inhibition of growth at 20 ppm [2]: ≥ 80%
inhibition of growth at 20 ppm [3]: ≥ 80%
inhibition of growth at 20 ppm (Fusarium culmorum): ≥ 80%

Cc1c(NC(=O)C(C)CC(C)C)cnc2c(F)cccc12 (centres unmarked) [Compound E13]
inhibition of growth at 20 ppm [2]: ≥ 80%
inhibition of growth at 20 ppm [3]: ≥ 80%
inhibition of growth at 20 ppm (Fusarium culmorum): ≥ 80%

CC(CC(F)(F)F)C(=O)Nc1cnc2c(F)cccc2c1 (centres unmarked) [Compound E14]
inhibition of growth at 20 ppm [2]: ≥ 80%
inhibition of growth at 20 ppm [3]: ≥ 80%
inhibition of growth at 20 ppm (Fusarium culmorum): ≥ 80%

Reference: patent US11129386B2, “Microbiocidal quinoline (thio)carboxamide derivatives” (SYNGENTA PARTICIPATIONS AG, priority 2017, dated 2021)
